Assay results reported in US9597375B2, “Coagulation and fibrinolytic cascades modulator” (The Board of Trustees of the University of Illinios, priority 2005, dated 2017).
“Also recorded” adds a separate entry of the source. Like-named read-outs stand apart in the source and are kept apart here.

Experiments:
[1] = system: fibrinolysis in pooled normal plasma; assay: Plasma clot lysis model, clotting initiated by calcium ions and thrombin in presence of plasminogen activator; type: biochemical, human
Procedure: In order to study the effect of polyP on fibrinolysis independent of its effect on clotting times, the model was modified such that clotting was initiated by a mixture of calcium ions and thrombin in the presence of uPA (pooled normal plasma supplemented with 1.4 nM uPA). The amount of thrombin was chosen to yield rapid clotting times, permitting analyses to focus on the lytic phase only. […] In the absence of polyP, the clots subsequently lysed, with a 50% lysis time of 61 min in this experiment. […] The magnitude of the effect of polyP75 on the inhibition of fibrinolysis was dependent on the uPA concentration. At high uPA concentrations the effect of polyP75 could be masked, presumably reflecting a balance situation between uPA and polyP within the clot (data not shown).
Microplate-based assays of plasma clotting and fibrinolysis—Some of the clotting assays were conducted in flat-bottom, polystyrene, 96-well plates (Corning). Turbidity, a measure of clot formation, was quantified at 37° C. by measuring the absorbance of light at 405 nm in a VERSAmax microplate reader (Molecular Devices, Sunnyvale, Calif.). Reactions (100 μl final volume) typically contained the following final concentrations: 30% (v/v) human plasma; 8 mM Tris-HCl buffer, pH 7.4; 0.008% (v/v) Tween-20; 10.6 mM calcium chloride; and, variably, 10 nM thrombin. In some experiments, clotting reactions were initiated by calcium ions alone. In this case, a 1.25× reaction mixture of the above-described components (except calcium chloride) was prepared in a final volume of 80 μl per well. Clotting was then initiated by adding 20 μl of 53 mM calcium chloride and absorbance at 405 nm was monitored. In other experiments, clotting was initiated by a mixture of calcium ions and thrombin. In these cases, to the 80 μl reaction mixtures described above were added 10 μl of 106 mM calcium chloride followed immediately by 10 μl of 100 nM thrombin. […]

TFPI = biological target: T1, TFPI (Homo sapiens, UniProt P10646); type: biochemical
T1 construct: Recombinant, full-length human TFPI was a kind gift of Dr. George Broze; gift of Dr. George Broze, Washington University St. Louis
T1 sequence (P10646 29-304): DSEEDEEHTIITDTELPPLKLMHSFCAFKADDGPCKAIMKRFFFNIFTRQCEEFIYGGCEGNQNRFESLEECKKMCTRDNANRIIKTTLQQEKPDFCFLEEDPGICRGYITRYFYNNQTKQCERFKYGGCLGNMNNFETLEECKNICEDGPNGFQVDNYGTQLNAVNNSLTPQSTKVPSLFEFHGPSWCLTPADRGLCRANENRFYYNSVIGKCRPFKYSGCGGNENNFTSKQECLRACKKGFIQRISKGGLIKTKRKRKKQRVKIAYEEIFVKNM
Procedure: The hypothesis that polyP might block the anticoagulant effect of TFPI was tested. This was examined in a dilute PT assay in which varying concentrations of recombinant TFPI were added to plasma samples. Plasma normally contains relatively low levels of free TFPI, so adding exogenous TFPI can dramatically lengthen PT clotting times.
Coagulometer-based plasma clotting assays—Recombinant human tissue factor was reconstituted into phospholipid vesicles as previously described [18], using a mixture of 20% phosphatidylserine and 80% phosphatidylcholine at a phospholipid:tissue factor molar ratio of 8700:1. Blank phospholipid vesicles (PCPS vesicles) composed of 20% phosphatidylserine and 80% phosphatidylcholine (and no tissue factor) were prepared as described [18]. The thromboplastin reagent for the PT assay was prepared by diluting relipidated tissue factor to a final concentration of 200 ng/ml tissue factor in TBSA buffer (50 mM Tris-HCl pH 7.5, 100 mM NaCl, 0.02% sodium azide, 0.1% (w/v) bovine serum albumin). The thromboplastin reagent for the dilute PT assay was prepared in the same manner as the reagent for the PT assay, except that the relipidated tissue factor was typically diluted to a final concentration of 1 ng/ml tissue factor in TBSA buffer containing 50 μM PCPS vesicles.
The PT, XaT, aPTT and PTT clotting assays were typically performed in a STart coagulometer (Diagnostica Stago) by pre-incubating 50 μl of human plasma with 50 μl of the indicated clotting reagent at 37° C. for the following times: PT and XaT assays, 120 sec; aPTT and PTT assays, 180 sec. Clotting was then initiated by adding 50 μl of 25 mM calcium chloride solution that had been pre-warmed to 37° C. The time to clot formation was then measured relative to the point of addition of calcium chloride. […] When the effect of TFPI on clotting was tested, TFPI was added to plasma at the indicated concentration immediately before use. When the effect of polyP on clotting was tested, polyP was added to the clotting reagent at the indicated concentration. […]

pooled normal plasma = assay: Dilute PT assay; type: biochemical, human
Procedure: The ability of polyP75 to influence the clotting time of a variety of clotting assays was systematically evaluated, employing commonly used plasma clotting assays including the prothrombin time (PT) assay, the partial thromboplastin time (PTT) assay, the activated partial thromboplastin time (aPTT) assay, a factor Xa clotting assay (XaT), and the thrombin time (TT) assay (FIG. 9). The PT assay, which is conducted by adding a thromboplastin reagent (a source of tissue factor activity and calcium ions) to plasma, drives coagulation through the extrinsic, or tissue factor pathway. The PTT and aPTT assays rely on the contact, or intrinsic, pathway of blood clotting. The XaT assay relies on the presence of factor V, prothrombin and fibrinogen in plasma, while the TT assay relies only on the presence of fibrinogen. Therefore, these assays assess different stages of the blood clotting cascades. All were performed in a coagulometer at 37° C.
Coagulometer-based plasma clotting assays—Recombinant human tissue factor was reconstituted into phospholipid vesicles as previously described, using a mixture of 20% phosphatidylserine and 80% phosphatidylcholine at a phospholipid:tissue factor molar ratio of 8700:1. Blank phospholipid vesicles (PCPS vesicles) composed of 20% phosphatidylserine and 80% phosphatidylcholine (and no tissue factor) were prepared as described. […]
The PT, XaT, aPTT and PTT clotting assays were typically performed in a STart coagulometer (Diagnostica Stago) by pre-incubating 50 μl of human plasma with 50 μl of the indicated clotting reagent at 37° C. for the following times: PT and XaT assays, 120 sec; aPTT and PTT assays, 180 sec. […] The time to clot formation was then measured relative to the point of addition of calcium chloride. The TT clotting assay was performed in the same coagulometer as follows: 50 μl human plasma was pre-warmed to 37° C. for 60 sec, after which 50 μl of pre-warmed TT reagent was added and the time to clot formation was measured. […]

[2] = polyP25-75 at 75 μM phosphate equivalents (FIG. 5), short phosphates data not shown

O=P(O)(O)OP(=O)(O)O [PPi, pyrophosphate]
ability to inhibit fibrinolysis, dependence on chain length [1, 2]: no discernable effect on fibrinolysis | blocking of TFPI anticoagulant effect, dependence on chain length (TFPI): did not block TFPI anticoagulant function at all

O=P(O)(O)O [Pi, sodium phosphate]
ability to inhibit fibrinolysis, dependence on chain length [1]: no discernable effect on fibrinolysis | blocking of TFPI anticoagulant effect, dependence on chain length (TFPI): did not block TFPI anticoagulant function at all

TFPI: Recombinant, full-length human tissue factor pathway inhibitor
dilute PT clotting time (pooled normal plasma; 100 ng/ml TFPI added to pooled normal plasma, no polyP (66 sec without TFPI)): over 160 sec | dilute PT mean clotting time (pooled normal plasma; 200 ng/ml TFPI added, no polyP (59 sec without TFPI)): 294 s | effect of added TFPI on dilute PT clotting time (in words) (pooled normal plasma; TFPI added to pooled normal plasma, no polyP): greatly prolonged the dilute PT clotting time; also recorded: substantially prolonged

sodium tripolyphosphate [polyP3]
ability to inhibit fibrinolysis, dependence on chain length [1, 2]: no discernable effect on fibrinolysis | blocking of TFPI anticoagulant effect, dependence on chain length (TFPI; 200 ng/ml TFPI, 75 μM phosphate equivalents in dilute thromboplastin reagent (FIG. 12)): did not block TFPI anticoagulant function at all
